The source made the active and inactive calls. No cut-off for these calls is given here.
Columns and labels:
[1] = Ex vivo expansion of human CD34+ cells assessed as increase in CD34+ cell level after 5 to 7 days by […]; type: functional
[2] = Stimulation of ex vivo expansion of human CD34+ cells assessed as CD34postive phenotypic levels after 7 days by carboxyfluorescein succinimidyl ester dye based assay; type: functional
[3] = species: Homo sapiens; experiment: Stimulation of ex vivo expansion of human CD34+ cells assessed as decrease in burst forming units of erythroid at 165 nM measured after 14 days; type: functional
[4] = Stimulation of ex vivo expansion of human CD34+ cells assessed as increase in CD34+ cells at 165 nM incubated for 7 days supplemented with 50% fresh medium containing cytokines every other day by flow cytometry relative to base line; type: functional
[5] = tested on: THP-1; experiment: Cytotoxicity against human THP1 cells assessed as reduction cell viability up to 1600 nM after 4 days by CCK8 assay; type: cell-based; details: thp-1, 96 h
[6] = Stimulation of ex vivo expansion of human CD34+CD38- cells assessed as increase in expansion of total cells at 165 nM incubated for 7 days supplemented with 50% fresh medium containing cytokines every other day by flow cytometry relative to control; type: functional
[7] = Stimulation of ex vivo expansion of human CD34+ cells assessed as colony forming cells at 165 nM measured after 14 days; type: functional
[8] = Stimulation of ex vivo expansion of human CD34+ cells assessed as increase in CD34+CD38- cells at 165 nM incubated for 7 days supplemented with 50% fresh medium containing cytokines every other day by flow cytometry relative to control; type: functional
[9] = Stimulation of ex vivo expansion of human CD34+ cells assessed as CD34+CD38- level incubated for 7 days supplemented with 50% fresh medium containing cytokines every other day by flow cytometry; type: functional
[10] = species: Homo sapiens; experiment: Stimulation of ex vivo expansion of human CD34+ cells assessed as increase in granulocyte/macrophage differentiation at 165 nM measured after 14 days; type: functional
[11] = Stimulation of ex vivo expansion of human CD34+ cells assessed as CD34+CD38-CD90+[…]CD49F+ cells at 165 nM incubated for 7 days supplemented with 50% fresh medium containing cytokines every other day by flow cytometry (reference value: 0.16 +/- 0.04%); type: functional
[12] = species: Homo sapiens; experiment: Stimulation of ex vivo expansion of human CD34+ assessed as increase in granulocyte differentiation at 165 nM measured after 14 days; type: functional
[13] = Stimulation of ex vivo expansion of human CD34+ cells assessed as increase in CD34+CD38- cells at 165 nM incubated for 7 days supplemented with 50% fresh medium containing cytokines every other day by flow cytometry relative to base line; type: functional
[14] = Stimulation of ex vivo expansion of human CD34+ cells assessed as CD34+ cells at 165 nM incubated for 7 days supplemented with 50% fresh medium containing cytokines every other day by flow cytometry (reference value: 25.9 +/- 0.01%); type: functional
[15] = Stimulation of ex vivo expansion of human CD34+ cells assessed as increase in colony forming cells at 165 nM after 14 days relative to control; type: functional
[16] = Stimulation of ex vivo expansion of human CD34+ cells assessed as CD34+CD38- level at 0.01 to 1 uM incubated for 7 days supplemented with 50% fresh medium containing cytokines every other day by flow cytometry (reference value: 19.10 +/- 0.35%); type: functional
[17] = Stimulation of ex vivo expansion of human CD34+ cells assessed as CD34+/CD38- level at 0.01 to 1 uM incubated for 7 days supplemented with 50% fresh medium containing cytokines every other day by flow cytometry relative to control; type: functional
[18] = Cytotoxicity against human CD34+ cells assessed as live cells at 165 nM incubated for 7 days supplemented with 50% fresh medium containing cytokines every other day by flow cytometry (reference value: 77.3 +/- 2%); type: cell-based; details: read-out: Activity
[19] = Stimulation of ex vivo expansion of human CD34+ cells assessed as increase in expansion of total cells at 165 nM incubated for 7 days supplemented with 50% fresh medium containing cytokines every other day by flow cytometry relative to control; type: functional
[20] = Stimulation of ex vivo expansion of human CD34+ cells assessed as CD34+CD38-CD90+[…] cells at 165 nM incubated for 7 days supplemented with 50% fresh medium containing cytokines every other day by flow cytometry (reference value: 2.98 +/- 0.5%); type: functional
[21] = Stimulation of ex vivo expansion of human CD34+ cells assessed as increase in expansion of total cells at 165 nM incubated for 7 days supplemented with 50% fresh medium containing cytokines every other day by flow cytometry relative to base line; type: functional
[22] = Stimulation of ex vivo expansion of human CD34+ cells assessed as CD34+/CD38- cells at 165 nM incubated for 7 days supplemented with 50% fresh medium containing cytokines every other day by flow cytometry (reference value: 19.16 +/- 0.32%); type: functional
[23] = Homo sapiens, 168 h, read-out: EC50

| EC50 [9, 23] [nM] | SMILES | Activity [16] [%] | fold change (FC) [17] | EC50 [9] | other results |
| --- | --- | --- | --- | --- | --- |
| – | CC(C)n1cnc2c(NCCc3ccc(O)cc3)nc(-c3csc4ccccc34)nc21 | – | – | – | EC50 [1]: 120 nM; Activity [2]: 61% |
| 30 | COc1cc2c(cc1OC)CN(CCNc1nc(Cc3ccccc3)nc3[nH]c4cc(-c5nnn(C)n5)ccc4c13)CC2 | 69.69 | 3.65 | – | Activity [3]: Active; fold change (FC) [4]: 5; Activity [5]: Non-Toxic; fold change (FC) [6]: 4.9; Activity [7]: 254 CFU; fold change (FC) [8]: 4.4; Activity [10]: Active; Activity [11]: 0.21%; Activity [12]: Active; fold change (FC) [13]: 4 - 5; Activity [14]: 60.33%; fold change (FC) [15]: 1.4; viability at 168 h, 0.165 µM [18]: 80.6%; fold change (FC) [19]: 2.4; Activity [20]: 4.05%; fold change (FC) [21]: 5; Activity [22]: 58% |
| – | COc1ccc(CCNc2nc(Cc3ccccc3)nc3[nH]c4cc(-c5nnn(C)n5)ccc4c23)cc1OC | 37.07 | 1.94 | Nd(Toxic) | – |
| – | Cn1nnc(-c2ccc3[nH]c4nc(Cc5ccccc5)nc(N[C@H]5CC[C@H](O)CC5)c4c3c2)n1 | 17.9 | 0.94 | Nd(Toxic) | – |
| – | COc1ccc(Nc2nc(Cc3ccccc3)nc3[nH]c4ccc(-c5nnn(C)n5)cc4c23)cc1 | 19.34 | 1.01 | Nd(Toxic) | – |
| – | Cn1nnc(-c2ccc3c(c2)[nH]c2nc(Cc4ccccc4)nc(NCCc4ccc(O)cc4)c23)n1 | 18.2 | 0.95 | Nd(Toxic) | – |
| – | Cc1ccc(Sc2nc(Cc3ccccc3)nc3[nH]c4ccc(-c5nnn(C)n5)cc4c23)cc1 | 25.53 | 1.34 | Nd(Toxic) | – |
| 19.2 | Cc1cc(Cl)ccc1Nc1nc(Cc2ccccc2)nc2[nH]c3ccc(-c4nnn(C)n4)cc3c12 | 30.36 | 1.59 | – | – |
| – | COc1ccc(CCNc2nc(Cc3ccccc3)nc3[nH]c4cc(-c5nnn(C)n5)ccc4c23)cc1 | 14.15 | 0.74 | Nd(Toxic) | – |
| – | COc1ccc(CCNc2nc(Cc3ccccc3)nc3[nH]c4ccc(-c5nnn(C)n5)cc4c23)cc1 | 21.96 | 1.15 | Nd(Toxic) | – |
| – | Cn1nnc(-c2ccc3[nH]c4nc(Cc5ccccc5)nc(Nc5cccc(Br)c5)c4c3c2)n1 | 22.63 | 1.19 | Nd(Toxic) | – |
| 26.2 | Cn1nnc(-c2ccc3[nH]c4nc(Cc5ccccc5)nc(NCCN(Cc5ccccn5)Cc5ccccn5)c4c3c2)n1 | 24.23 | 1.27 | – | – |
| – | Cn1nnc(-c2ccc3[nH]c4nc(Cc5ccccc5)nc(NCCNC(=O)OC(C)(C)C)c4c3c2)n1 | 16.11 | 0.84 | Nd(Toxic) | – |
| 59.2 | Cn1nnc(-c2ccc3[nH]c4nc(Cc5ccccc5)nc(N5CCCC(CO)C5)c4c3c2)n1 (centres undefined) | 22.2 | 1.16 | – | – |
| – | Cn1nnc(-c2ccc3[nH]c4nc(Cc5ccccc5)nc(Nc5ccc(N)cc5)c4c3c2)n1 | 22.01 | 1.15 | Nd(Toxic) | – |
| 177 | Cn1nnc(-c2ccc3[nH]c4nc(Cc5ccccc5)nc(N5CCOCC5)c4c3c2)n1 | 17.32 | 0.91 | – | – |
